We go through one compound from patent US12465609B2, “Methods of treating patients suffering from a disease condition or disorder that is associated with an increased glutamate level” (veriNOS operations GmbH, priority 2022, dated 2025).

Bounds are passed on as bounds.

The subject of assay [1] is patients with acute moderate and severe TBI. Nature of the assay: NOSTRA III phase III trial, clinical outcome (eGOS, therapy intensity level) in TBI patients. The settings on record: for proportion of low TIL levels (3-10 points): patients of 18-39 years; for eGOS median at 6 months: placebo 5. Type of assay: in vivo, human. As for the experimental part: Based on the results of the earlier phase II study, the NOSTRA III (NO Synthase in TRAumatic Brain Injury) phase III trial was designed to detect clinically relevant differences in clinical outcome (Extended Glasgow Outcome Score at 6 months after injury) as primary endpoint. In addition, the extracellular intracerebral glutamate levels and lactate levels of these TBI patients were also determined in an exploratory approach to monitor the metabolic state of the patients.
Trials. 2020. A total of 224 evaluable patients with moderate and severe TBI were enrolled in 32 centres in Austria, France, Germany, Spain, and United Kingdom. The trial started on 24 Aug. 2016 with last-patient last-visit on 17 Jun. 2020.
Patients between 18 and 60 years of age with Glasgow Coma Score ≥3 requiring intracranial pressure (ICP) monitoring were enrolled. Other inclusion criteria were TBI within the last 18 hours but at least 6 hours after the injury, which were expected to survive more than 24 hours after admission.
The eGOS was determined by a face to face meeting by trained assessors.
The null-hypothesis of no shift across the 8 ordered categories of eGOS for the two treatment groups was tested after six months based on a proportional odds model stratified by age (18-39 years and 40-60 years). […] Treatment and age (18-39 years and 40-60 years) were included in the model. The proportional odds assumption was tested using a Chi-Square Score Test.
The main objective of the post hoc analyses was to estimate the effect size of VAS203 compared with placebo for the primary endpoint eGOS-I (eGOS-Interview) in the subgroups time to infusion ≤12 hours and >12 hours. Supportive analyses were conducted by age group (<40 years, ≥40 years) because age group was used as a stratification factor in the study. Comparability between treatment groups regarding demographics as well as severity and location of disease was investigated using similar methods as in the main CSR.
The proportions of patients per eGOS-I level at 3 months and at 6 months were calculated. For the change in eGOS-I over time, the proportion of patients with changes from 3 to 6 months were calculated by eGOS-I level, and in addition categorised as decreased (i.e. any decrease in eGOS-I level from 3 to 6 months), unchanged (i.e. no change in eGOS-I level from 3 to 6 months), and increased (i.e. any increase in eGOS-I level from 3 to 6 months).
Ordinal logistic regression was used for the analysis of eGOS-I at 3 months and at 6 months, including treatment group and age group (<40 years, ≥40 years) as factors in the model. Estimated odds ratios for the comparison of the VAS203 and placebo groups of >1 mean that eGOS-I was higher in the VAS203 group than in the placebo group across the 8 levels, whereas odds ratios of <1 mean that eGOS-I was lower in the VAS203 group than in the placebo group. Odds ratios together with their 95% CIs were used to estimate and assess the size of the treatment effect of VAS203 compared to placebo. Proportional […] were assumed as valid for all these analyses because ordinal logistic regression analysis is known to be robust against deviations from this assumption; also, the power of assumption checking would be low for small subgroups.
Based on the time-dependent activation of pathologic cascades during the early phase after TBI and the benefits observed with an infusion of VAS203 during the initial 12 hours after TBI in the Phase IIa trial [Stover], a post-hoc-analysis was performed to determine whether patients in whom VAS203 was infused ≤12 hours after TBI, show better clinical improvement compared to patients in whom infusion was started >12 hours after TBI.

For assay [2], the system named is extracellular brain lactate level. The assay can be described thus: Brain microdialysis, extracellular cerebral lactate levels in TBI patients. Type of assay: in vivo, human. As for the experimental part:
To monitor the metabolic condition of the patients, extracellular brain glutamate and lactate levels were measured. In more detail, the extracellular intracerebral glutamate and lactate levels measured here is the glutamate or lactate level in brain extracellular fluid (ECF). […] The measurements of the glutamate and lactate levels was carried out using established brain microdialysis (MD) methodology as described, for example, by Chamoun et al, example. Role of extracellular glutamate measured by cerebral microdialysis in severe traumatic brain injury. J Neurosurg. 2010 September; 113(3): 564-570.
The microdialysis (MD) equipment was obtained from M Dialysis AB, Stockholm, Sweden, see www.mdialysis.com. The following equipment was used. • Cerebral MD catheters: CMA 70 • CMA 70 bolt catheter • CMA 71 high cut-off cerebral catheter • Pumps: CMA106=fixed flow rate, CMA107=flexible flow rate • Perfusion solution: Cerebral: Perfusion fluid CNS • Analyzers: CMA 600, ISCUS, ISCUSflex Time Point of MD Catheter Insertion • Aim: Obtain stable baseline values before infusing study drug • Ideal: By 14 hours after TBI or 4 hours before study drug infusion to allow for tissue adaptation, usually lasting 1-4 hours • Compromise: As soon as possible, within 4 hours after beginning study drug infusion Site of Cerebral MD Catheter Insertion • Aim: Monitor metabolic changes close to structural damage visible on routine CT scan • Contusion: Close to the contusion • Mixed lesions: Predominantly injured hemisphere • With bolt system: Right or left frontal lobe • Without bolt system: Right or left frontal/temporal/parietal area • If possible cerebral MD catheter should be placed ipsilateral to the ICP probe • Special care should be taken to avoid inducing injury to pre- and postcentral cortex • The position of the MD probe and the position of the ICP probe in the eCRF should be indicated.
The cerebral glutamate and lactate levels were recorded every 1 h up to 5 days after the start of the infusion. Absolute values were be summarized per treatment group and for each time point by means of descriptive statistics. The 95% confidence intervals for the mean were calculated (normal approximation).
For the analysis of the metabolic state, it was considered that under normal (physiological) conditions glutamate is maintained at low levels (micromolar) in the extracellular space (<2 μmol/L) and in plasma (50-100 μmol/L) to avoid excessive glutamate receptor activation. Within the different intracellular compartments glutamate is present in higher amounts (5-15 millimolar). In brain microdialysis, glutamate levels exceeding 10 μmol/L are considered elevated, higher glutamate levels are associated with worse outcome. In addition to the absolute levels, dynamic changes are also important in interpreting underlying pathology. In brain microdialysis and blood, lactate levels exceeding 2.5 millimol/L are considered pathologically elevated, reflecting insufficient metabolic/energetic stability which is further aggravated by insufficient oxygen supply.

For `C[C@H](O)[C@H](O)C1CNc2nc(N)nc(N)c2N1` (mixture of isomers) [Ronopterin, 4-Amino-(6R,S)-5,6,7,8-tetrahydro-L-biopterin], the “proportion of patients with Good Recovery” value in assay [1] (18-39 years, late infusion >12 hours, placebo 38%) was determined as 30%; in assay [1] (40-60 years, late infusion >12 hours, placebo 19%), 20%; in assay [1] (patients aged 18-39 years, early infusion ≤12 hours, placebo 32%), 45%; in assay [1] (patients aged 40-60 years, early infusion, placebo 8%), 27%. Also, the “proportion of low TIL levels (3-10 points)” value in assay [1] (second week after TBI, placebo 64%, p=0.0002) was determined as 81%; in assay [1] (placebo 62%, p=0.01), 71%. Also, the “NNT for Good Recovery” value in assay [1] (time to infusion <12 hours) turned out to be 8. The “increase of proportion of patients with a Good Recovery at 6 months compared to the Placebo group” value in assay [1] (time to infusion <12 hours) was 61%. In addition, in assay [1] (time to infusion <12 hours, placebo 23%, ns), the “proportion of patients with Good Recovery (eGOS 7 and 8)” value stood at 37%. Besides, the “eGOS median at 6 months” value in assay [1] (time to infusion >12 hours) was determined as 5; in assay [1] (time to infusion ≤12 hours, not significant), 6. The “proportion of patients with Good Recovery at 6 months” value in assay [1] (time to infusion >12 hours, placebo 28%) is 25%. In assay [1] (total dose 17 mg/kg infused for 48 hours, ordinal logistic regression), the “overall eGOS-I rating at 6 months vs placebo (primary efficacy endpoint)” value was “No difference”. In addition, the “extracellular cerebral lactate levels” value in assay [2] (18 to 39 years, all times to infusion, patients reaching <2.5 millimol/L (FIG. 7A)) was “lower brain lactate levels compared to the placebo group”; in assay [2] (18 to 39 years, infusion >12 hours, a number of patients <2.5 millimol/L (FIG. 8C)), “lower brain lactate levels than the placebo group”; in assay [2] (18 to 39 years, infusion ≤12 hours, a number of patients <2.5 millimol/L (FIG. 8A)) it was “lower brain lactate levels than the placebo group”; in assay [2] (40 to 60 years, all times to infusion, all patients, higher than placebo (FIG. 7C)), no less than 2.5 millimol/L; in assay [2] (40 to 60 years, infusion ≤12 hours, all patients, higher than placebo (FIG. 9A)) it was no less than 2.5 millimol/L. Moreover, in assay [2] (within 120 hours after administration, stayed below threshold or only slightly elevated), the “extracellular brain lactate levels” value was less than 2.5 millimol/L.
